The results in this text go back to ChEMBL document CHEMBL4813961, “Antiviral Bafilomycins from a Feces-Inhabiting Streptomyces sp” (J Nat Prod, 2021).

Series [1] has as its system Influenza A virus. Description: Antiviral activity against Influenza A virus (A/Puerto Rico/8/1934(H1N1)) infected in MDCK cells incubated for 48 hrs by MTT assay. The format is functional, organism-based. (In general: Tetrazolium dyes change colour on reduction, which living cells bring about.)
The test system of a further series is MDCK. The experiment in a line: Inhibition of V-ATPase in dog MDCK cells assessed as decrease in fluorescence intensity at 5 uM incubated for 20 mins by acridine orange staining-based fluorescence quenching method (reference value: 100%). The series is classed as cell-based. The settings on record: Canis lupus familiaris.
A short description of series [2]: Cytotoxicity against dog MDCK cells incubated for 48 hrs by MTT assay. The series is classed as cell-based, Canis lupus familiaris.
The test system of series [3] is Influenza A virus. The experiment in a line: Antiviral activity against Influenza A virus (A/Puerto Rico/8/34(H1N1)) infected in MDCK cells assessed as reduction in HA mRNA level at 1 ng/ml pre-treated with virus for 30 mins followed by cell infection for 1 hr and measured after 24 hrs post infection by SYBR green dye-based qRT-PCR analysis. The format is functional, organism-based. Conditions: A/Puerto Rico/8/1934(H1N1), time 1470.0 min.

The subject of series [4] is Influenza A virus. The experiment in a line: Antiviral activity against Influenza A virus (A/Puerto Rico/8/34(H1N1)) infected in MDCK cells assessed as reduction in NP expression level at 0.5 to 1 ng/ml pre-treated with virus for 30 mins followed by cell infection for 1 hr and measured after 24 hrs post infection by indirect immunofluorescence assay. The settings on record: A/Puerto Rico/8/1934(H1N1), dose 0.5-1 ng/ml, time 1470.0 min. The series is classed as functional, organism-based.

The test system of series [5] is Influenza A virus. The experiment in a line: Antiviral activity against Influenza A virus (A/Puerto Rico/8/34(H1N1)) infected in MDCK cells assessed as reduction in M1 mRNA level at 1 ng/ml pre-treated with virus for 30 mins followed by cell infection for 1 hr and measured after 24 hrs post infection by SYBR green dye-based qRT-PCR analysis. The format is functional, organism-based. Conditions: A/Puerto Rico/8/1934(H1N1), time 1470.0 min. A general note: Real-time PCR tracks product formation cycle by cycle.

Series [6] has as its system Influenza A virus. Description: Antiviral activity against Influenza A virus (A/Puerto Rico/8/1934(H1N1)) infected in MDCK cells pre-treated with virus for 30 mins followed by cell infection for 1 hr by MTT assay. The format is functional, organism-based.
Series [7] has as its system SARS-CoV-2. Description: Antiviral activity against SARS-CoV-2 nCoV-2019 BetaCoV/Wuhan/WIV04/2019 infected in Vero E6 cells assessed as S gene expression preincubated with virus for 30 mins followed by cell infection for 1 hr and measured at 24 hrs post infection by qRT-PCR method. The series is classed as functional, organism-based. Conditions: Severe acute respiratory syndrome coronavirus 2, nCoV-2019 BetaCoV/Wuhan/WIV04/2019, Vero C1008.

Series [8] relates to SARS-CoV-2. Description: Antiviral activity against SARS-CoV-2 nCoV-2019 BetaCoV/Wuhan/WIV04/2019 infected in Vero E6 cells assessed as S gene expression preincubated with cells for 1 hr followed by viral addition for 1 hr and measured at 24 hrs post infection by qRT-PCR method. The series is classed as functional, organism-based. The settings on record: Severe acute respiratory syndrome coronavirus 2, nCoV-2019 BetaCoV/Wuhan/WIV04/2019, Vero C1008.

For series [9], the system named is SARS-CoV-2. Description: Antiviral activity against SARS-CoV-2 nCoV-2019 BetaCoV/Wuhan/WIV04/2019 infected in Vero E6 cells assessed as reduction in NP expression at 0.005 to 0.5 ug/ml preincubated with cells for 1 hr followed by viral addition for 1 hr and measured at 24 hrs post infection by indirect immunofluorescence assay. The format is functional, organism-based. The settings on record: Severe acute respiratory syndrome coronavirus 2, dose 0.005-0.5 µg/ml, time 26.0 hrs.

Activity calls are given as the source filed them. No cut-off for these calls is given here.

Regarding `CO/C1=C/C(C)=C/[C@@H](C)[C@H](O)[C@@H](C)C/C(C)=C/C=C/[C@H](OC)[C@@H]([C@@H](C)[C@@H](O)[C@H](C)[C@]2(O)C[C@H](OC(=O)/C=C/C(=O)NC3=C(O)CCC3=O)[C@@H](C)[C@H](C(C)C)O2)OC1=O`, the IC50 – broadly, the midpoint of a concentration-inhibition curve – was determined as 100 nM with Influenza A virus [1] and 0.17 nM in the series on Influenza A virus [6]. Moreover, in the series on MDCK, the Flu intensity was found to be 78.4%. Also, the midpoint of cytotoxicity in series [2], the CC50 at 48 h, lay at 1310 nM. Besides, the result with Influenza A virus [3], with Influenza A virus [4] and with Influenza A virus [5] was Active.
As for `CO/C1=C/C(C)=C/[C@@H](C)[C@H](O)[C@@H](C)C/C(C)=C/C=C/[C@H](OC)[C@@H]([C@@H](C)[C@@H](O)[C@H](C)[C@]2(OC)C[C@H](OC)[C@@H](C)[C@H](C(C)C)O2)OC1=O`, the IC50 is 260 nM in the series with Influenza A virus [1] and 0.18 nM in the series on Influenza A virus [6]. Besides, the midpoint of cytotoxicity in series [2], the CC50 at 48 h, lay at 1290 nM.
Regarding `CO/C1=C/C(C)=C/[C@@H](C)[C@H](O)[C@@H](C)C/C(C)=C/C=C/[C@H](OC)[C@@H]([C@@H](C)[C@@H](O)[C@H](C)C(=O)/C=C/[C@H](C)[C@H](O)C(C)C)OC1=O`, the figures for the half-inhibitory concentration (IC50) in the series with Influenza A virus [1] and with Influenza A virus [6] were 30 nM and 0.1 nM, respectively. Further, the Flu intensity in the series on MDCK is 82.7%. The CC50 (commonly the concentration at which the toxic effect on the cells reaches its halfway point) at 48 h in [2] came out at 910 nM.
With `CO/C1=C/C(C)=C/[C@@H](C)[C@H](O)[C@@H](C)C/C(C)=C/C=C/[C@H](OC)[C@@H]([C@@H](C)[C@@H](O)[C@H](C)[C@]2(OC)C[C@H](OC(=O)/C=C/C(=O)NC3=C(O)CCC3=O)[C@@H](C)[C@H](C(C)C)O2)OC1=O`, the IC50 in the series on Influenza A virus [1] was found to be 50 nM; with SARS-CoV-2 [7], 8.32 nM; in the series with SARS-CoV-2 [8], 5.11 nM; in the series on Influenza A virus [6], 0.1 nM. Further, the Flu intensity in the series on MDCK amounted to 73.6%. In series [2], this compound gave a CC50 at 48 h of 240 nM. In addition, the outcome with Influenza A virus [3], in the series on Influenza A virus [4], in the series with Influenza A virus [5] and in the series with SARS-CoV-2 [9] was Active.
Consider `CO/C1=C/C(C)=C/[C@@H](C)[C@H](O)[C@@H](C)C/C(C)=C/C=C/[C@H](OC)[C@@H]([C@@H](C)[C@@H](O)[C@H](C)C(=O)/C=C/C(C)=C/C(C)C)OC1=O`, for which the IC50 in the series on Influenza A virus [1] was found to be 460 nM; with Influenza A virus [6] it was 2.13 nM. Moreover, the Flu intensity with MDCK is 93.5%. Besides, the CC50 at 48 h in series [2] stood at 3100 nM.
In the case of `CO/C1=C/C(C)=C/[C@@H](C)[C@H](O)[C@@H](C)C/C(C)=C/C=C/[C@H](OC)[C@@H]([C@@H](C)[C@@H](O)[C@H](C)[C@]2(O)C[C@H](OC)[C@@H](C)[C@H](C(C)C)O2)OC1=O`, the 50% inhibitory concentration (IC50) in the series on Influenza A virus [1] came to 140 nM; in the series with Influenza A virus [6], 0.65 nM. The compound further gave a CC50 at 48 h in series [2] of 190 nM.
`CCOC(=O)c1c(CSc2ccccc2)n(C)c2cc(Br)c(O)c(CN(C)C)c12` [UMIFENOVIR]: the IC50 in the series on Influenza A virus [1] is 460 nM; in the series with Influenza A virus [6], 400 nM. In series [2], this compound came in with a 50% cytotoxic concentration (CC50) at 48 h of 46400 nM.
For `CO/C1=C/C(C)=C/[C@@H](C)[C@H](O)[C@@H](C)C/C(C)=C/C=C/[C@H](OC)[C@@H]([C@@H](C)[C@@H](O)[C@H](C)[C@]2(OC)C[C@H](O)[C@@H](C)[C@H](C(C)C)O2)OC1=O`, the half-inhibitory concentration (IC50) came to 170 nM in the series on Influenza A virus [1] and 0.11 nM in the series with Influenza A virus [6]. Moreover, the Flu intensity in the series with MDCK is 88.7%. This compound also had a cytotoxic concentration (CC50) at 48 h in series [2] of 1710 nM.
Turning to `CO/C1=C\C(C)=C\[C@@H](C)[C@@H](O)[C@@H](C)C/C(C)=C/C=C/[C@H](OC)[C@@H]([C@@H](C)[C@@H](O)[C@H](C)[C@@]2(O)C[C@@H](O)[C@H](C)[C@@H](C(C)C)O2)OC1=O` [BAFILOMYCIN A1], the IC50 in the series with Influenza A virus [1] worked out at 580 nM; in the series on Influenza A virus [6], 0.06 nM. For the same compound, in the series on MDCK, the Flu intensity worked out at 85.3%. Besides, it took 1410 nM to reach half-maximal cytotoxicity in [2] (CC50 at 48 h).
